Results taken from patent US4328214A, “Cyclopeptides and pharmaceutical preparations thereof and also processes for their manufacture” (Ciba-Geigy Corporation, priority 1979, dated 1982).

System: insulin and glucagon release
Test: determination of insulin and glucagon release using the isolated perfused pancreas of a rat
Settings: multiple of the reference's inhibitory effect

## [D-Trp^8 ; β-(1-naphthyl)-Gaba^12 ]-cyclosomatostatin(5-12)-octapeptide [formula ID diastereoisomeric mixture]
  inhibitory effect relative to [D-Trp^8 ; Gaba^12 ]-cyclosomatostatin(5-12)-octapeptide (formula M, p=1): approximately 10 times
